Reference: patent US20240166703A1, “ANTI-INFLAMMATORY PEPTIDE AND METHOD OF USE THEREOF” (The Regents of the University of California, priority 2021, published 2024)

Tested on: canonical NF-κB signaling through IKK2 in RAW 264.7 murine macrophage cells
Assay: Western blot of canonical NF-κB signaling in LPS-treated RAW 264.7 cells
Type: cell-based
Settings: 100 ng/mL LPS for 2 hours
Procedure: To prepare nuclear and cytoplasmic protein extracts, HeLa, MEF, and RAW 264.7 cells were lysed in buffer containing 4.3 mM Na2HPO4, 1.47 mM KH2PO4 pH 7.4, 137 mM NaCl, 2.7 mM KCl, 1 mM DTT, 0.05% (v/v) NP-40, and 1×protease inhibitor cocktail for 10 minutes on ice and spun at 3,000 rpm at 4° C. for 10 minutes. The supernatant containing the cytoplasmic fraction was quantified by Bio-Rad protein assay to determine the total amount of protein. Pellets were resuspended in nuclear extraction buffer (25 mM Tris-HCl pH 7.5, 420 mM NaCl, 10% glycerol, 0.2 mM EDTA, 1 mM DTT, 0.5 mM PMSF, 1×protease inhibitor cocktail) once and then subjected to three lysis cycles (freeze at −80° C. and thaw at 37° C.). Finally, samples were centrifuged at 13,000 rpm at 4° C. for 20 minutes, and supernatants containing the soluble nuclear fraction were measured by the Bio-Rad protein assay to determine the total amount of protein. Nuclear and cytoplasmic extracts were aliquoted and kept at −80° C.
HeLa, MEF, RAW 264.7 cells were cultured in Dulbecco's MEM containing 10% fetal bovine […] supplemented with penicillin and streptomycin, at 37° C. in a humidity incubator with 5% CO2. RAW 264.7 cells were seeded and allowed to adhere for 24 hours then treated with NEMO^ActPep or NEMO^ActPep 6G at different concentrations 60 min before the LPS challenge (100 ng/ml). After 2 hours, nuclear and cytoplasmic extracts were collected. HeLa and MEF cells seeded for 24 hours then treated with NEMO^ActPep or NEMO^ActPep 6G at different concentrations 60 min before the TNF-α challenge (10 ng/ml) for 15 minutes and then nuclear and cytoplasmic extracts were collected. MEF cells were treated with NEMO^ActPep or NEMO^ActPep 6G at different concentrations 1 hour before the LTβR challenge (300 ng/ml). After 24 hours whole cell extracts were collected and aliquoted and kept at −80° C. for further experiments.
Equivalent amounts of protein from cell extracts was separated by SDS-PAGE and transferred to polyvinylidene fluoride (PVDF) membranes (Millipore, Bedford, MA, USA). The membrane was blocked with 5% bovine serum albumin (BSA) for 1 hour at room temperature and then the membrane was incubated with the primary antibodies overnight at 4° C. Antibodies for IKK2, His, HA, Myc, GST, Ubiquitin, IκBα, phospho-IKK2, p65/ReIA, p84, γ-Actin, p100/52, phospho-ERK, phospho-JNK, phospho-p38, ERK, JNK, and p38 were used for detecting multiple specific protein targets. After binding of an appropriate secondary antibody coupled to horseradish peroxidase, the immunoreactive bands were visualized by enhanced chemiluminescence substrate.
It was then tested if the observed effect is universal across species and cell types. The effect of TAT-NEMO^ActPep was tested in RAW 264.7 murine macrophage cells treated with 100 ng/mL purified bacterial lipopolysaccharide (LPS) for 2 hours. Again, NF-κB DNA binding and ReIA subunit nuclear localization were both inhibited as were phosphorylation of the IKK2 activation loop and degradation of IκBα. […] The effect of TAT-NEMO^ActPep on NF-κB DNA binding was also analyzed in MEF cells by EMSA.

TAT-NEMO^ActPep: HIV-1 TAT fused flexibly to human NEMO amino acids 375-391; cell permeable version of NEMO activation peptide (SEQ ID NO 2) (YGRKKRRQRRRGGLSSPLALPSQRRSPPEE)
inhibited: ReIA subunit nuclear localization (western blot) | degradation of IκBα (western blot) | phosphorylation of the IKK2 activation loop (western blot)
